Measured values published in patent publication US20180368393A1, “PRE- AND POST-STORAGE STRESS RESPONSE CONDITIONING” (CPSI HOLDINGS LLC, priority 2017, published 2018).

Assays:
human endothelial cells = experiment: Human endothelial cell monolayer survival and repopulation following cryopreservation (Calcein-AM assay); format: cell-based
Method: A series of cryopreservation experiments was conducted on human endothelial and smooth muscle cell suspensions and monolayers to assess the performance of four (4) commercially available cryopreservation solutions: DP6, VS55, VS83, and M22, as well as nine (9) additional solutions: […] Eurocollins (EC) solution was included as a negative control, i.e., no cryoprotective agent (CPA) control, while media+10% DMSO ([…]) is a typical solution (10% DMSO) used in standard controlled rate cryopreservation protocols known to the skilled individual. Unisol is representative of the class of intracellular-like or intracellular-type solutions/media, whereas EC solution and culture media are representative of the class of extracellular-like or extracellular-type solutions/media. Other studies presented herein provide additional examples of intracellular- and extracellular-like solutions; other intracellular- and extracellular-like solutions are similarly useful and are known to those of skill in the art. FIG. 1 illustrates the results of an assessment of human endothelial cell survival following preservation. Monolayers of endothelial cells were frozen or vitrified and thawed in the indicated solutions (control, Uni, […], DP6, VS55, VS83, and […]). Following thawing, samples were diluted in culture media, placed into culture and assessed for viability at 1 day (24 hours) post-thaw and following seven (7) days of recovery using the Calcein-AM assay. […] The Uni and U10 conditions provided outcomes exceeding that of the VS55, VS83 and […] conditions. Therefore, subsequent studies (see, e.g., FIG. 2) focused on Unisol-based solutions with various CPAs and concentrations, in addition to the DP6 commercial cryopreservation solution. […] Monolayers of endothelial cells were frozen or vitrified and thawed in the indicated solutions. […] For pre-freeze (PF), post-warming (PW) and pre/post (P/P) conditioning studies, molecular modulation agents targeting inhibition of apoptosis (Caspase inhibitor IV, 8, 9 and a combination of Caspases 8 and 9), reduction of free-radical damage (resveratrol and NAC), and activation of the unfolded protein response (salubrinal) were employed as supplements in the media 1 hour prior to freezing (pre-freeze condition) or for 1 day following thawing and CPA removal from frozen samples (post-warming condition). Based on outcomes in the studies in Example 1, PF, PW and P/P conditioning were examined in Examples 2-3 using a series of Unisol-based solutions (Uni, U5, U10, U20, UG10, U5G10 and U10G10). […] Patent Application Publication No. US 2016/0097583 A1 (Ser. No. 14/876,087), which is incorporated by reference in its entirety as though fully set forth herein. The freeze and thaw process was slightly modified relative to the disclosure of U.S. Patent Application Publication No. US 2016/0097583 A1 by the addition of a 0.090 inch aluminum plate inserted into the bottom of the 96 well plate to aid in increasing cooling and heating uniformity throughout the plate, thereby reducing the well-to-well variability within the samples. The device was used to thaw the samples, which were frozen in situ in monolayers in standard 96-well tissue culture plates. […] A mitochondrial-mediated apoptotic inhibitor (Caspase 9) and a membrane-mediated apoptotic inhibitor (Caspase 8) were investigated to evaluate the involvement and impact of modulation of various apoptotic induction pathways. Additionally, a pan-Caspase inhibitor (Cas IV) was also investigated to assess the impact of global pathway modulation. As with the viability studies, cell survival and repopulation were assessed using Calcein-AM assays and analyzed using fluorescent microscopy (Zeiss). Survival was determined at 24 hours post-thaw to allow for the manifestation of any delayed onset cell death pathways to be executed. Further, cell recovery was included to evaluate the long term potency and repopulation potential of the various samples. […]

[1] = tested on: human smooth muscle cells; experiment: Human smooth muscle cell monolayer survival and repopulation following cryopreservation (Calcein-AM assay); format: cell-based
Method: The device was used to thaw the samples, which were frozen in situ in monolayers in standard 96-well tissue culture plates. Samples were thawed from less than −170° C. to about 4° C. in the 96-well plate format in about 5 mins in a dry clean (“sterile”) environment.
The study described in example 3.1 focuses on the collection of cell survival data and the impact of post-thaw conditioning on human smooth muscle cells (SMCs). Specific activities included application of the high throughput monolayer sample cryopreservation protocol and collection of data (survival and cell death) from samples frozen using 6 unique cryopreservation solutions (U5, U10, U20, U5G10, U10G10, DP6) and 6 unique modulators (resveratrol, salubrinal, caspase inhibitors (IV, 8, 9) and NAC). Survival was determined at 24 hours post-thaw to allow for the manifestation of any delayed onset cell death pathways to be executed. Further, cell recovery was included to evaluate the long term potency and repopulation potential of the various samples.
A series of experiments was conducted to evaluate the performance of several solutions (U5, U10, U20, U5G10, U10G10 and DP6) as well as the impact of pre-freeze (PF) and post-warming (PW) conditioning with the apoptotic inhibitors Caspase 8, Caspase 9 and Caspase IV inhibitors. Cell samples were processed using the monolayer CP protocol and analyzed following 24 hours to 7 days post thaw for survival and recovery. These experiments were conducted to evaluate the impact of molecular modulators (inhibitors) during pre-freeze or post-thaw recovery on cell survival when added to the media 1 hour prior to or 24 hour following cryopreservation. […] To this end, samples were probed with Calcein-AM, incubated for 30 mins in the dark and then imaged using a Zeiss Axiovert 200 fluorescence microscope and Axiovision software. Images were taken at 24 hours to 7 days post-thaw to allow for assessment of solution and post-thaw conditioning agent performance.
As in previous experiments, the 24 hour time point was used for initial survival assessment, as this time point allows for the manifestation of molecular based cell stress-induced death. This provides a more accurate measure of survival than 0 or 1 hour post-thaw assessment, as is typically used. The 3 day time point was selected to assess re-population potential of any surviving cells as an indicator of long term potency.
For smooth muscle cell pre-freeze (PF) conditioning studies, 1 hour prior to CP addition, culture media was decanted and 100 μL of fresh media supplemented with caspase 8, 9, or IV was added to each respective well. Samples were then incubated at 37° C. for 1 hour, followed by media removal and addition of 100 μL of CP solution to samples followed by cryopreservation as described above. Following preservation, samples were thawed, diluted, and placed into culture. Following 24 hours recovery, cell viability was assessed.
For smooth muscle cell post-warming (PW) conditioning studies, following thawing and cryopreservation, CP solution was removed or diluted with culture media supplemented with caspase 8, 9, or IV. FIG. 18 illustrates the impact of apoptotic inhibition post-freeze conditioning on human smooth muscle cell survival 1 day following cryopreservation with and without reduced CPA.
For P/P conditioning studies, 1 hour prior to CP addition, culture media was decanted and 100 μL of fresh media supplement with caspase 8, 9, or IV was added to each respective well.

## CC(=O)N[C@@H](CS)C(=O)O [NAC, n-acetyl cysteine]
Human endothelial cells; P/P conditioning with NAC, salubrinal or resveratrol, U10G10
  survival: ~60%
Human endothelial cells; P/P conditioning, U10 and U5G10 CP solutions vs matched non-treated samples
  post-thaw viability: increase in post-thaw viability
Human endothelial cells; P/P oxidative stress modulator conditioning, U10G10
  day 1 survival increase over non-treated samples: ~2.5 fold
Human endothelial cells; PF conditioning 1 hour, U10G10
  day 1 survival increase over non-treated samples: ~2 fold
Human endothelial cells; PW conditioning 24 hours, U10G10
  day 1 survival increase over non-treated samples: ~2 fold
Human endothelial cells; PW conditioning in combination with various solutions
  post-thaw cell survival or recovery (overall): Broader solution benefit
Human endothelial cells; PW conditioning with oxidative stress modulators, vs non-treated
  cell recovery / repopulation, 3 days: improved cell recovery
Human endothelial cells; PW conditioning, U10 and U10G10 solutions, day 1
  increase in survival: ~50%
[1]; P/P conditioning with oxidative stress modulators
  repopulation / recovery at 3 days post-thaw: day 3 recovery reached a monolayer similar to non-treated controls
[1]; P/P conditioning, vs non-conditioned samples
  day 1 cell survival: slight to no improvement in cell survival
[1]; PW conditioning in combination with the other solutions
  post-thaw cell survival or recovery (overall): Broader solution benefit
[1]; PW conditioning with oxidative stress modulators
  cell recovery / repopulation, day 3: improved cell recovery
[1]; PW conditioning, vs non-treated matched samples
  day 1 cell survival: improvement in cell survival
